The assay concerns the target T1, human recombinant AKR1B1 (hAKR1B1) (Homo sapiens, UniProt P15121).
T1 construct: made in house
The assay is described as follows: Assay of aldose reductase: hAKR1B1-catalysed NADPH-dependent reduction of L-idose or HNE, decrease in absorbance at 340 nm. The format is biochemical. Particulars: for IC50: 8 mU hAKR1B1, authentic standard; for K’i (ternary enzyme-substrate-inhibitor complex dissociation constant) / Ki: Hanes-Woolf analysis, mean ± SEM; for Ki: read-out: Ki (binary enzyme-inhibitor complex dissociation constant). As to the method: The AKR1B1 activity was determined at 37 °C as previously described, monitoring the decrease in absorbance at 340 nm linked to NADPH oxidation (ε340=6.22 mM^−1 cm^−1) through a Biochrom Libra S60 spectrophotometer. In a 0.25 M sodium phosphate buffer pH 6.8, the standard assay mixture contained 0.18 mM NADPH, 0.4 M ammonium sulphate, 0.5 mM EDTA and 4.7 mM GAL. One unit of enzyme activity is the amount that catalyses the conversion of 1 µmol of substrate/min in the above assay conditions. These assay conditions were also adopted to assess the effectiveness of inhibitors when L-idose or HNE were used, at the indicated concentrations, as substrates instead of GAL. Differential inhibition (DI) refers to the difference between the percentage inhibition observed using L-idose and HNE as substrates in the assay conditions indicated.
The human recombinant AKR1B1 (hAKR1B1) was expressed and purified to electrophoretic homogeneity as previously described. The purified enzyme (specific activity 5.3 U/mg) was stored at −80 °C in a 10 mM sodium phosphate buffer pH 7.0 containing 2 mM DTT and 30% (w/v) glycerol. Before use, the enzyme was extensively dialysed against a 10 mM sodium phosphate buffer pH 7.0.
The protein concentration was determined by the Coomassie blue staining method, using BSA as a standard protein. Statistical analysis was performed using the two-way ANOVA test carried out with Graphpad 6.0 software. IC50 determination was performed using standard statistical software (GraphPad Instat version 6.0, San Diego, CA). Results are reported as the mean of the values and the 95% confidence interval from at least three independent measurements.

Where [1] appears, read: substrate 0.04 mM HNE, read-out: IC50 for HNE reduction.
[2] abbreviates: substrate 0.8 mM L-idose, read-out: IC50 for L-idose reduction.

The IC50 is the concentration that inhibits the measured activity by half. Usually Ki stands for the equilibrium dissociation constant of an inhibitor or competing ligand from its target.

Like-named read-outs stand apart in the source and are kept apart here.

As for `CC1(C)C[C@@H](O)[C@]2(C)CC[C@]3(C)C(=CC[C@@H]4[C@@]5(C)CC[C@H](O[C@@H]6O[C@H](C(=O)O)[C@@H](O)[C@H](O)[C@H]6O[C@@H]6O[C@H](CO)[C@H](O)[C@H](O)[C@H]6O[C@@H]6O[C@H](CO)[C@@H](O)[C@H](O)[C@H]6O)[C@](C)(CO)[C@@H]5CC[C@]43C)[C@@H]2C1` [SSBa, soyasaponin Ba (V)], the IC50 is 47 µM under setting [1] and 40 µM under setting [2]. For the same compound, the “K’i (ternary enzyme-substrate-inhibitor complex dissociation constant)” value (substrate HNE) is recorded as 23 ± 4 µM and the “K’i (ternary enzyme-substrate-inhibitor complex dissociation constant)” value (substrate L-idose) was determined as 24 ± 2 µM. In addition, the Ki (substrate HNE) was determined as 65 ± 12 µM and the inhibition constant Ki (substrate L-idose) is 66 ± 17 µM. The inhibition model entry (with respect to HNE) is listed as “mixed inhibitor” and the inhibition model result (with respect to L-idose) is “mixed inhibitor”.

For the compound `C[C@@H]1O[C@@H](O[C@H]2[C@H](O[C@H]3[C@H](O[C@H]4CC[C@@]5(C)[C@@H](CC[C@]6(C)[C@@H]5CC=C5[C@@H]7CC(C)(C)C[C@@H](O)[C@]7(C)CC[C@]56C)[C@@]4(C)CO)O[C@H](C(=O)O)[C@@H](O)[C@@H]3O)O[C@H](CO)[C@H](O)[C@@H]2O)[C@H](O)[C@H](O)[C@H]1O` [SSBb, soyasaponin Bb (I)], the IC50 worked out at 360 µM under setting [1] and 170 µM under setting [2]. The “K’i (ternary enzyme-substrate-inhibitor complex dissociation constant)” value by setting is: (substrate HNE) 248 ± 19 µM; (substrate L-idose) 191 ± 11 µM. Further, the Ki (substrate L-idose) worked out at 176 ± 35 µM. For the same compound, the inhibition model result is, setting by setting: (with respect to HNE) “uncompetitive”; (with respect to L-idose) “purely non-competitive inhibitor”.

The record behind these values is article PMC6327985, “Soyasaponins from Zolfino bean as aldose reductase differential inhibitors” (Journal of Enzyme Inhibition and Medicinal Chemistry, 2018).
